Data on one molecule can be found in US10190093B2, “Artificial oocyte activation” (The Curators of the University of Missouri, priority 2013, dated 2019).

Values joined by “and” are separate entries in the source; they are usually repeats but may differ in a detail not shown here. Equal entries are not always repeated. “Also recorded” adds a separate entry of the source. Marks after values point to notes of the source that are not given here.

Series [1] concerns MII oocytes. Put plainly: Intracellular calcium measurement (fura-2). In kind it is cell-based, pig. The conditions noted are these: oocytes exposed to TPEN 5, 10, and 200 μM. As for the experimental part:
The zonae pellucidae were removed after maturation and zona-free oocytes were loaded with the Ca^2+ indicator dye, fura-2. For this purpose, they were incubated in the presence of […] of the acetoxymethyl ester form of the dye and 0.02% pluronic F-127 for 40-50 min (both from Invitrogen). The dye loaded oocytes were transferred into a chamber with a cover-glass bottom and the chamber was then placed on the heated stage of an inverted microscope. Changes in the intracellular free Ca^2+ concentration were recorded using InCytIm2, a dual-wavelength fluorescence imaging system (Intracellular Imaging, Inc.; Cincinnati, Ohio). During measurements the emitted fluorescence was detected at 510 nm after exciting the dye alternately at 340 and 380 nm. The ratio of the two emitted fluorescence intensities was calculated and the data are presented as fluorescence ratio values. Ratios of 1.0 and 5.0 correspond to about 100 and 1,200 nM Ca^2+, respectively. In each treatment group the measurements were repeated at least 5 times using different oocytes.
(Calcium flux is commonly read through the fluorescence of an indicator in the cells.)

The subject of series [2] is porcine oocytes. As to the kind of experiment: TPEN as main oocyte activating reagent after a smaller Ca2+ increase (electroporation in 0.1 mM Ca2+). In kind it is cell-based, pig. As to conditions: for Day 6 Blastocysts (%) / Day 7 Blastocysts (%): 0.1 mM Ca2+ electroporation. As to the method:
Oocytes were obtained from either pre-pubertal gilt ovaries from an abattoir (Farmland Foods Inc., Milan, Mo.), or sow-derived oocytes that were purchased from Applied Reproductive Technology (Madison, Wis.). Immature oocytes from gilt ovaries were aspirated from medium size (3-6 mm) follicles by using an 18 gauge hypodermic needle attached to a 10 mL syringe. Oocytes with evenly dark cytoplasm and intact surrounding cumulus cells were then selected for maturation. Around 50 cumulus oocyte complexes were place in a well containing 500 μL of maturation medium, TCM 199 (Invitrogen, Grand Island, N.Y.) with 3.05 mM glucose, 0.91 mM sodium pyruvate, 0.57 mM cysteine, 10 ng/mL epidermal growth factor (EGF), 0.5 mg/mL luteinizing hormone (LH), 0.5 mg/mL follicle stimulating hormone (FSH), 10 ng/mL gentamicin (APP Pharm, Schaumburg, Ill.), and 0.1% polyvinyl alcohol (PVA) for 42-44 hr at 38.5° C., 5% CO2, in humidified air. […] At the end of the maturation, the surrounding cumulus cells were removed from the oocytes by vortexing for 3 min in the presence of 0.1% hyaluronidase. Oocytes with a visible polar body were selected in manipulation medium (TCM199 with 0.6 mM NaHCO3, 2.9 mM Hepes, 30 mM NaCl, 10 ng/mL gentamicin, and 3 mg/mL bovine serum albumin [BSA]; and osmolarity of 305) and then used for the experiments. Different oocyte activation methods were used for the experiments. As conventional activation methods, either electrical or chemical activation was used. For electrical activation, mature oocytes were activated in activation medium (0.3 M mannitol, 1.0 mM CaCl2, 0.1 mM MgCl2, and 0.5 mM Hepes) by two direct-current (DC) pulses (1-sec interval) at 1.2 kV/cm for 30 μsec (using BTX Electro Cell Manipulator, Harvard Apparatus, Holliston, Mass.). […] For TPEN mediated activation, mature oocytes were incubated in TL-Hepes media with various concentrations of TPEN for different durations. […] At the end of the culture, where applicable, the frequency of cleaved embryos and blastocysts, and total cell number in the blastocysts were recorded. Hoechst 33342 (1.2 mg/mL) was used to stain nuclei and the embryos were then evaluated by epi-fluorescence microscopy. […] The ability of TPEN as the main activating reagent was therefore tested. […] Then the oocytes were incubated with various concentrations (1 μM, 5 μM, 10 μM, 100 μM and 200 μM) and durations (10 minutes, 20 minutes, 30 minutes, 1 hour, 2 hours, and overnight) of TPEN. […] Optimal oocyte activation was observed when oocytes were activated by a smaller Ca^2+ signal followed by incubating in 200 μM TPEN for 30 min.

For series [3], the system named is SCNT embryos transferred into surrogate gilt. Put plainly: Embryo transfer, in vivo development competence of SCNT embryos. As for the experimental part: To address in vivo competency of SCNT embryos activated by utilizing TPEN, a series of embryo transfers were performed. For the study, at day 1, the SCNT-derived embryos were surgically transferred into the ampullary-isthmic junction of a surrogate gilt at 0 or 1 days after observed estrus. At the end of gestation periods, piglets were recovered through C-section.
Six embryo transfers were performed for the study and two surrogates carried their pregnancy to term, each resulting in two healthy piglets (Table 6). One of the term development was from SCNT embryos that were not treated with a HDAC inhibitor, Scriptaid.

On to `c1ccc(CN(CCN(Cc2ccccn2)Cc2ccccn2)Cc2ccccn2)nc1` [TPEN, N,N,N′,N′-tetrakis(2-pyridylmethyl)ethane-1,2-diamine], for which the “intracellular Ca2+ increase” value in series [1] was “does not induce a Ca^2+ increase; also recorded: no Ca^2+ increase was detected”. In addition, the “cell numbers in day 7 blastocysts” value in series [2] (1 μM TPEN overnight) is on record as 24.80±7.84; in series [2] (10 μM TPEN for 1 hour) it was 30.17±5.97; in series [2] (10 μM TPEN for 2 hours), 29.63±10.47; in series [2] (100 μM TPEN for 20 minutes), 50.75±17.94. In addition, the “number of blastocysts at day 6 and 7” value in series [2] (1 μM TPEN overnight) is given as “increased number of blastocysts”. Besides, the “Day 6 Blastocysts (%)” value was 0% and 0^b % in series [2] (then TPEN 10 μM, 30 min); 15^a % in series [2] (then TPEN 10 μM, 1 hour); 15^a % in series [2] (then TPEN 10 μM, 2 hours); 15^a % in series [2] (then TPEN 100 μM, 10 min); 25^a % in series [2] (then TPEN 100 μM, 20 min); 37.04^c % in series [2] (then TPEN 200 μM, 30 min). The “Day 6 Blastocysts (%)” value in series [2] (then TPEN 200 μM, 1 hour) is on record as 18.75^a %. For the same molecule, the “Day 7 Blastocysts (%)” value in series [2] (then TPEN 10 μM, 30 min) is reported as 5^b %; in series [2] (then TPEN 10 μM, 1 hour), 22.5^a %; in series [2] (then TPEN 10 μM, 2 hours) it was 25^a %; in series [2] (then TPEN 100 μM, 10 min), 15^a %; in series [2] (then TPEN 100 μM, 20 min) it was 30^a %; in series [2] (then TPEN 200 μM, 30 min), 41.98^c %. Further, the “Day 7 Blastocysts (%)” value in series [2] (then TPEN 200 μM, 1 hour) is given as 27.5^a %. The “Result of embryo transfer” value was 2 normal piglets were and Cycled in series [3] (SCNT + 5 μM TPEN, 30 min + Scriptaid); 2 normal piglets were and Cycled in series [3] (SCNT + 5 μM TPEN, 30 min, no Scriptaid); “Cycled” in series [3] (SCNT + 10 μM TPEN, 10 min + Scriptaid). For the same molecule, the “toxicity to SCNT embryos, full term development” value in series [3] (embryo transfers of TPEN treated SCNT embryos) is on record as “not toxic to the SCNT embryos”.
